Peptide text beside a SMILES is read from it. * marks the point of attachment. Cbz = O=C(OCc1ccccc1)*
Experiments:
BRD4 protein = molecular target: T1, BRD4 protein (Homo sapiens, UniProt O60885); experiment: BRD4 protein degradation by Western blotting; type: cell-based; conditions: 50 μM IU1 with BRD4 PROTAC; 1% SDS lysis buffer or RIPA buffer; FIG. 11
T1 construct: endogenous in cells
Procedure: (§1) To prepare samples for Western blotting, HeLa and LNCaP cells were washed once with ice-cold PBS (1×) and lysed using RIPA buffer (ROCKLAND, MB-030-050) supplemented with protease inhibitor cocktail (Roche), 1 mM PMSF, and 1 mM DTT, or 1% SDS lysis buffer [1% (w/v) SDS, 10 mM Tris-HCl, 1 mM EDTA, pH 8.0]. All lysates were quantified by BCA protein assay (Thermo Fisher Scientific), and then 15 to 30 μg of each lysate was run by SDS-PAGE. Afterwards, the experiment was performed in the following order: transfer to PVDF membrane, treatment with a blocking solution (5% BSA or 5% non-fat dry milk in 1× TBST), treatment with designated primary antibody, and treatment with HRP-linked secondary antibody. Between treatments, washing was performed several times with excess 1× TBST. Each membrane was image-analyzed and quantified for protein signals using ChemiDoc (iBright750, Invitrogen).
In order to determine whether the USP14 inhibitor of the present disclosure can enhance protein degradation capability for PROTACs other than CDK9 PROTACs, which were confirmed through experiments in Examples 2 and 4, it was confirmed whether the effect of degradation of BRD4 protein by BRD4 PROTAC was enhanced by IU1 treatment. […]

SHP-2 protein = molecular target: T2, SHP-2 protein (Homo sapiens, UniProt Q06124); experiment: SHP-2 protein degradation by Western blotting in HeLa cells; type: cell-based; conditions: IU1 in combination with SHP-2 PROTAC, FIGS. 12A, 12B
T2 construct: endogenous in cells; host or cells: HeLa (ATCC)
T2 sequence (Q06124 1-593): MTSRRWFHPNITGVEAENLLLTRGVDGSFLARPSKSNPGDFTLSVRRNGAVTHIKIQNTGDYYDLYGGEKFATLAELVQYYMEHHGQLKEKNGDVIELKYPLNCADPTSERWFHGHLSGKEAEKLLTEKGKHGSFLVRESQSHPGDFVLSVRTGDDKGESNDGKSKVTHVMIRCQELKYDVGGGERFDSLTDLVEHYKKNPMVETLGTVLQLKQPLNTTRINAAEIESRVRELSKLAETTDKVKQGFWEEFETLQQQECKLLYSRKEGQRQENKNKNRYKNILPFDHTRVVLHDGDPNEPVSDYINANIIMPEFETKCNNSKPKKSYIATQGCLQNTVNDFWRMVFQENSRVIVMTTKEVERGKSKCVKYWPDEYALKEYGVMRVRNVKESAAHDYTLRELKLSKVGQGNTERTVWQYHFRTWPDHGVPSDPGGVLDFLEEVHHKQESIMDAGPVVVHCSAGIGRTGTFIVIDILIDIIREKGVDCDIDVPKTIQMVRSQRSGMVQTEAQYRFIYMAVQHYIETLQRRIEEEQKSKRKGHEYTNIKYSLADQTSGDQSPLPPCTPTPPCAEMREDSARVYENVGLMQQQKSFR
Procedure: as §1
In addition, for SHP-2 PROTAC, which is another VHL-based PROTAC other than BRD4 PROTAC, it was confirmed whether the degradation effect for SHP-2 protein was enhanced under experimental conditions similar to those in the experiment in FIG. 7.

HeLa cells [1] = conditions: FIG. 8
Procedure: To measure cell viability by treatment with the compound of the present disclosure, HeLa and LNCaP cells were seeded in a 96-well plate (SPL, #33396) at 500 cells/well (HeLa) or 3000 cells/well (LNCaP). The cells were seeded and cultured in an incubator at 37° C. and 5% CO2. Twenty four hours later, the medium was replaced with compound-containing medium and incubated under the same conditions in an incubator for 48 hours. Afterwards, cell viability was measured through luminescence analysis in an Envision microplate reader (Perkin Elmer) using the ATP-lite 1 step assay kit (Perkin Elmer).
The results measured in the experiments to confirm cell viability were initially processed using Excel, and then the IC50 values were derived through nonlinear regression analysis using Prism software.

CDK9 protein [2] = molecular target: T3, CDK9 protein (Homo sapiens, UniProt P50750); experiment: CDK9 protein degradation by Western blotting in LNCaP cells; type: cell-based; set-up: endogenous in cells
Procedure: HeLa cells (cervical cancer cells) and LNCaP cells (prostate cancer cells) that were used for the experiments of the present disclosure were obtained from the American Type Culture Collection (ATCC), and were cultured in Dulbecco's Modified Eagle's Medium (DMEM, 1×) or RPMI-1640 (1×) medium, each containing 10% FBS, 1% penicillin/streptomycin and 1% L-glutamine, in a 37° C., 5% CO2 cell incubator. For experiments with PROTAC and deubiquitinase (DUB) inhibitors such as IU1 and IU1-47, 5×10^5 (HeLa) or 1×10^6 (LNCaP) cells were seeded into each well of a 12-well plate (Corning, #3513) one day before inhibitor treatment and then cultured in an incubator. […]
To prepare samples for Western blotting, HeLa and LNCaP cells were washed once with ice-cold PBS (1×) and lysed using RIPA buffer (ROCKLAND, MB-030-050) supplemented with protease inhibitor cocktail (Roche), 1 mM PMSF, and 1 mM DTT, or 1% SDS lysis buffer [1% (w/v) SDS, 10 mM Tris-HCl, 1 mM EDTA, pH 8.0]. All lysates were quantified by BCA protein assay (Thermo Fisher Scientific), and then 15 to 30 μg of each lysate was run by SDS-PAGE. […] Each membrane was image-analyzed and quantified for protein signals using ChemiDoc (iBright750, Invitrogen).
Data obtained through Western blotting were quantified using iBright analysis software, and the levels of all target proteins were normalized with GAPDH. […]

CDK9 protein [3] = molecular target: T3, CDK9 protein; experiment: CDK9 protein degradation by Western blotting in HeLa cells; type: cell-based; set-up: endogenous in cells; host or cells: HeLa (ATCC); conditions: for Enhancement of degradation effect of CDK9 PROTAC, comparison with PR-619: PR-619 at different concentrations, FIG. 16; for CDK9 protein level when inhibitor is treated together with PROTAC and IU1: proteasome or autophagy inhibitor added to CDK9 PROTAC and IU1, FIG. 4C
Procedure: HeLa cells (cervical cancer cells) and LNCaP cells (prostate cancer cells) that were used for the experiments of the present disclosure were obtained from the American Type Culture Collection (ATCC), and were cultured in Dulbecco's Modified Eagle's Medium (DMEM, 1×) or RPMI-1640 (1×) medium, each containing 10% FBS, 1% penicillin/streptomycin and 1% L-glutamine, in a 37° C., 5% CO2 cell incubator. For experiments with PROTAC and deubiquitinase (DUB) inhibitors such as IU1 and IU1-47, 5×10^5 (HeLa) or 1×10^6 (LNCaP) cells were seeded into each well of a 12-well plate (Corning, #3513) one day before inhibitor treatment and then cultured in an incubator. Twenty-four hours after incubation, each well was replaced with medium containing serial dilutions of the compound and incubated under the same conditions for no more than 24 hours. As for all controls, the same amount of DMSO, which is a vehicle, was used for that of the compound treated with the experimental groups.
as §1
Data obtained through Western blotting were quantified using iBright analysis software, and the levels of all target proteins were normalized with GAPDH. After quantification and normalization, DC50 values of the compounds used in the experiments of the present disclosure were derived through nonlinear regression using Graph Pad Prism software.

HeLa cells [4] = experiment: Cancer cell migration assay in HeLa cells; type: cell-based; conditions: CDK9 PROTAC 40 nM and IU1-47 20 μM in combination; every 12 hours; FIG. 18
Procedure: Microscopic images were taken using an inverted fluorescence microscope (Olympus) through a 10× magnification lens every 12 hours, and the width of the intercellular region was measured using ImageJ software.
To this end, HeLa cells were treated with CDK9 PROTAC (40 nM) and IU1-47 (20 μM) compounds separately or in combination, and the migration of HeLa cells was confirmed every 12 hours.

HeLa cells [5] = experiment: Cancer cell colony formation assay in HeLa cells; type: cell-based; conditions: CDK9 PROTAC 10-100 nM and IU1-47 20 μM in combination; one week; FIG. 19
Procedure: Afterwards, the medium was replaced with a compound-containing medium, and then the cells were further cultured in the incubator under the same conditions for one week. The cultured cancer cells at the end were stained with 0.25% crystal violet staining solution containing 20% methanol for 1 hour, and then washed with ultrapure distilled water and dried at room temperature for one day. Cell images were captured using a camera or iBright CL750 (Thermo Fisher), the number of colonies was analyzed using iBright analysis software, and the size of colonies was analyzed using ImageJ software.
As another example to confirm the anticancer effect by the degradation of CDK9 protein enhanced by the combined treatment of the IU1-series compound and CDK9 PROTAC, which was confirmed in Examples as described above, different concentrations of CDK9 PROTAC (10, 25 , 50, 75, 100 nM) and IU1-47 (20 μM) compounds were used separately or in combination for treatment, and one week later, the degree of colony formation of HeLa cancer cells by the effect of enhancing CDK9 PROTAC protein degradation capability by IU1-series compound, was confirmed.

T3 sequence (P50750 whole entry): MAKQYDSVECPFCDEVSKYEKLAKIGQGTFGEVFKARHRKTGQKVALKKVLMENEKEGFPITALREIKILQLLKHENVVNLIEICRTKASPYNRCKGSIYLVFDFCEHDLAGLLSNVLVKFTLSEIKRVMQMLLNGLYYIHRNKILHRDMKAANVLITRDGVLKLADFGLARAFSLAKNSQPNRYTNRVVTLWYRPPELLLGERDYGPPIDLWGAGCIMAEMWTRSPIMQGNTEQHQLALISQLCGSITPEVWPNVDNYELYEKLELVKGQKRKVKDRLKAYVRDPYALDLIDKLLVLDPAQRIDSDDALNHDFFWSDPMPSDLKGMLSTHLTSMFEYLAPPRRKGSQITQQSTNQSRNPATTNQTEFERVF
T3 sequence (O60563 whole entry partner): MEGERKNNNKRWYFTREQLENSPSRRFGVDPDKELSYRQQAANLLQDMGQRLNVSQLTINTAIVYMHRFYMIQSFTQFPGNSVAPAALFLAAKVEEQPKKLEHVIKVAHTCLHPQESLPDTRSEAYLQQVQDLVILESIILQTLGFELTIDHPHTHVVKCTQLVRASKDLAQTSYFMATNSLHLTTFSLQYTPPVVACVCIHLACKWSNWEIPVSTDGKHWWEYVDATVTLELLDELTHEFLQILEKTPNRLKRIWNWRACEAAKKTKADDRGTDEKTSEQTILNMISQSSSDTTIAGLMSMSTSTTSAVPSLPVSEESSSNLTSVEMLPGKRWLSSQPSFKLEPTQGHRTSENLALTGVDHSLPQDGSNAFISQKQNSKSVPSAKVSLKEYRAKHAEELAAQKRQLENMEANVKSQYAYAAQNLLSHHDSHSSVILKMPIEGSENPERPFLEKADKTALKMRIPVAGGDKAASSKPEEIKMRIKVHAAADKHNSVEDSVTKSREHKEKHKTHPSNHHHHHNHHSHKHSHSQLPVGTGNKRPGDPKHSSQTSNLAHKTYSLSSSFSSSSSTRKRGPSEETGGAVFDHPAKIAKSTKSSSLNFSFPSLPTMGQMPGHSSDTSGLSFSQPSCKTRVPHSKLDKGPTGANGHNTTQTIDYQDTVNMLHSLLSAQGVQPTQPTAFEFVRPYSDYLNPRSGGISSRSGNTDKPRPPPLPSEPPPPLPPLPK

## Cc1cc(C(=O)CN2CCCC2)c(C)n1-c1ccc(F)cc1 [IU1, 1-[1-(4-fluorophenyl)-2,5-dimethylpyrrol-3-yl]-2-pyrrolidin-1-ylethanone]
BRD4 protein
  Enhancement of BRD4 protein degradation effect of BRD4 PROTAC: concentration-dependent enhancement of the BRD4 protein degradation effect
SHP-2 protein
  Enhancement of SHP-2 protein degradation by SHP-2 PROTAC: SHP-2 PROTAC concentration-dependent enhancement of SHP-2 protein degradation
HeLa cells [1]
  Anticancer effect of CDK9 PROTAC (IC50, cell growth inhibition) with IU1 in combination: significantly increased
CDK9 protein [2]; IU1 10, 25, 75, 100 μM (all concentrations), CDK9 PROTAC 1-50 nM, FIGS. 10A, 10B
  Enhancement of CDK9 degradation effect by CDK9 PROTAC, IU1 concentration fixed: enhanced the CDK9 degradation effect by CDK9 PROTAC in a PROTAC concentration-dependent manner
CDK9 protein [2]; IU1 and CDK9 PROTAC in combination, FIG. 9
  Degradation effect for CDK9 protein, combination versus CDK9 PROTAC alone: significantly increased
CDK9 protein [3]; HeLa, 75 μM of IU1 in combination
  Enhancement of protein degradation capability of CDK9 PROTAC through the DC50 value, versus vehicle control: about 5 times
CDK9 protein [3]; HeLa, CDK9 PROTAC 100 nM, IU1 50 μM, 0, 1, 3, 6, 12, 24 h, FIG. 15
  Time-dependent effect on degradation effect of CDK9 PROTAC: accelerated the degradation effect of PROTAC
CDK9 protein [3]; HeLa, CDK9 PROTAC 0.1-250 nM, especially high concentration of IU1, FIGS. 7A, 7B
  Enhancement of CDK9 protein degradation capability by CDK9 PROTAC versus vehicle control: highly enhanced the CDK9 protein degradation capability
CDK9 protein [3]; HeLa, CDK9 PROTAC 5, 10, 20, 25 nM, IU1 10-100 μM, FIGS. 6A, 6B
  Enhancement of protein degradation effect, CDK9 PROTAC concentration fixed: the protein degradation effect was enhanced in an IU1 concentration-dependent manner at all concentrations
CDK9 protein [3]; HeLa, IU1 50 μM with CDK9 PROTAC 1, 10, 25, 50, 100 nM, FIG. 4A
  CDK9 protein degradation effect of CDK9 PROTAC on combined treatment: substantially increased
CDK9 protein [3]; HeLa, IU1 10, 25, 75, 100 μM, CDK9 PROTAC 1-100 nM, FIGS. 5A, 5B
  Enhancement of CDK9 degradation effect by CDK9 PROTAC, IU1 concentration fixed: enhanced the CDK9 degradation effect by CDK9 PROTAC in a PROTAC concentration-dependent manner at all concentrations except for the IU1 concentration at 10 μM
CDK9 protein [3]; HeLa, maximum IU1 treatment concentration 50 μM, FIG. 4B
  CDK9 protein degradation on treatment with IU1 alone: degradation of CDK9 protein did not occur

## Cc1cc(C(=O)CN2CCCCC2)c(C)n1-c1ccc(Cl)cc1 [IU1-47, 1-[1-(4-chlorophenyl)-2,5-dimethyl-1H-pyrrol-3-yl]-2-(1-piperidinyl)ethanone]
HeLa cells [4]
  Migration or wound healing effect of HeLa cells, combination versus either alone: significantly inhibited
HeLa cells [5]
  Colony formation of HeLa cancer cells, combination versus either alone: significantly inhibited
CDK9 protein [3]; HeLa, 20 μM IU1-47 in combination with CDK9 PROTAC, FIG. 13C
  Enhancement of protein degradation of PROTAC from DC50 values, versus CDK9 PROTAC alone: about 6 times
CDK9 protein [3]; HeLa, CDK9 PROTAC 5, 10, 20 nM, varying IU1-47, FIG. 14
  Enhancement of degradation of PROTAC, CDK9 PROTAC concentration fixed: significantly enhanced the degradation of PROTAC in a concentration-dependent manner
CDK9 protein [3]; HeLa, FIG. 14
  CDK9 degradation on treatment with IU1-47 alone: did not result in any degradation of CDK9
CDK9 protein [3]; HeLa, IU1-47 10 μM, 20 µM, 30 μM, CDK9 PROTAC 0.1-250 nM, FIGS. 13A, 13B
  Enhancement of protein degradation capability of CDK9 PROTAC versus vehicle: significantly enhanced at all concentrations of IU1-47
CDK9 protein [3]; HeLa, IU1-47 20 μM, FIG. 17
  Enhancement of degradation effect of CDK9 PROTAC, comparison with P50429: significantly enhanced the degradation effect of PROTAC
CDK9 protein [3]; HeLa
  Enhancement of degradation effect of CDK9 PROTAC, comparison with PR-619: significantly enhanced the degradation effect of PROTAC
CDK9 protein [3]; in combination with PROTAC, see Example 6
  Targeted protein degradation capability of PROTAC, IU1-47 compared with IU1: more increased compared to when IU1 was treated in combination with PROTAC

## CC(C)C[C@@H](C=O)NC(=O)[C@H](CC(C)C)NC(=O)[C@H](CC(C)C)NC(=O)OCc1ccccc1 [MG132, reference compound] (Cbz-Leu-Leu-Leu-aldehyde)
CDK9 protein [3]
  CDK9 protein level when inhibitor is treated together with PROTAC and IU1: the level of CDK9 protein was recovered similar to the control group

## CS(=O)(=O)c1ccc(NC(=O)c2cc(C#N)c(Sc3c(Cl)cncc3Cl)s2)cc1 [P50429, reference compound]
CDK9 protein [3]; HeLa, P50429 1 μM and 10 μM with CDK9 PROTAC, FIG. 17
  Enhancement of degradation effect of CDK9 PROTAC: did not enhance the degradation effect of PROTAC

## N#CSc1cc(SC#N)c(N)nc1N [PR-619, reference compound]
CDK9 protein [3]; HeLa
  Enhancement of degradation effect of CDK9 PROTAC, comparison with PR-619: did not show the effect of enhancing the protein degradation of PROTAC at all treatment concentrations

## CO/C1=C\C(C)=C\[C@@H](C)[C@@H](O)[C@@H](C)C/C(C)=C/C=C/[C@H](OC)[C@@H]([C@@H](C)[C@@H](O)[C@H](C)[C@@]2(O)C[C@@H](O)[C@H](C)[C@@H](C(C)C)O2)OC1=O [bafilomycin A1, reference compound]
CDK9 protein [3]
  CDK9 protein level when inhibitor is treated together with PROTAC and IU1: the degradation of CDK9 protein by the treatment with PROTAC and IU1 was still observed

Reference: patent US20240108612A1, “PHARMACEUTICAL COMPOSITION FOR ENHANCING ANTICANCER EFFECT OF PROTAC, INCLUDING IU1-SERIES UBIQUITIN-SPECIFIC PROTEASE 14 INHIBITOR AS ACTIVE INGREDIENT” (DAEGU GYEONGBUK INSTITUTE OF SCIENCE AND TECHNOLOGY, priority 2021, published 2024)
